# Results published in ChEMBL document CHEMBL1139426, “Design and synthesis of a metabolically stable and potent antitussive agent, a novel delta opioid receptor antagonist, TRK-851” (Bioorg Med Chem, 2008).
# Active and inactive are the calls of the source. No cut-off for these calls is given here.
# Legend:
# [1] = Metabolic stability in human liver microsomes assessed as time course of compound elimination at 1 uM by HPLC; format: ADME, Microsome; details: read-out: Ke (converted)
# Rattus norvegicus [2] = assay: Antitussive activity in sc dosed Sprague-Dawley rat assessed as reduction of capsaicin-induced coughing for 3 mins administered 30 mins before capsaicin challenge relative to control; format: functional
# Rattus norvegicus [3] = assay: Antitussive activity in po dosed rat assessed as reduction of coughing; format: functional
# Rattus norvegicus [4] = assay: Antitussive activity in ip dosed Sprague-Dawley rat assessed as reduction of capsaicin-induced coughing for 3 mins administered 30 mins before capsaicin challenge relative to control; format: functional
# [5] = molecular target: Kappa-type opioid receptor (Mus musculus) (UniProt P33534); assay: Antagonist activity at kappa opioid receptor in ddy mouse vas deferens assessed as inhibition of U-50,488H-induced electrically-stimulated contraction at 10 nM pretreated for 20 mins; format: functional, tissue-based
# [6] = molecular target: Delta-type opioid receptor (Mus musculus) (UniProt P32300); assay: Antagonist activity at delta opioid receptor in ddy mouse vas deferens assessed as inhibition of DPDPE-induced electrically-stimulated contraction at 10 nM pretreated for 20 mins; format: functional, tissue-based
# [7] = molecular target: Delta-type opioid receptor (Mus musculus, UniProt P32300); assay: Antagonist activity at delta opioid receptor in ddy mouse vas deferens assessed as inhibition of DPDPE-induced electrically-stimulated contraction; format: functional, tissue-based
# [8] = molecular target: Mu-type opioid receptor (Mus musculus) (UniProt P42866); assay: Antagonist activity at mu opioid receptor in ddy mouse vas deferens assessed as ratio of morphine concentration that elicit equal response in absence and presence of compound; format: functional
# [9] = molecular target: Kappa-type opioid receptor (Mus musculus, UniProt P33534); assay: Antagonist activity at kappa opioid receptor in ddy mouse vas deferens assessed as inhibition of U-50,488H-induced electrically-stimulated contraction; format: functional, tissue-based; details: read-out: pA2 (converted)
# Rattus norvegicus [10] = assay: Antitussive activity in po dosed Sprague-Dawley rat assessed as inhibition of capsaicin-induced coughing for 3 mins administered 60 mins before capsaicin challenge relative to control; format: functional, organism-based
# [11] = molecular target: Delta-type opioid receptor (Mus musculus) (UniProt P32300); assay: Antagonist activity at delta opioid receptor in ddy mouse vas deferens assessed as ratio of DPDPE concentration that elicit equal response in absence and presence of compound; format: functional
# Mus musculus [12] = species: Mus musculus; assay: Selectivity for delta opioid receptor over kappa opioid receptor in ddy mouse vas deferens; format: tissue-based
# Mus musculus [13] = species: Mus musculus; assay: Selectivity for delta opioid receptor over mu opioid receptor in ddy mouse vas deferens; format: tissue-based
# [14] = molecular target: Kappa-type opioid receptor (Mus musculus) (UniProt P33534); assay: Antagonist activity at kappa opioid receptor in ddy mouse vas deferens assessed as ratio of U-50,488H concentration that elicit equal response in absence and presence of compound; format: functional
# [15] = molecular target: Mu-type opioid receptor (Mus musculus) (UniProt P42866); assay: Antagonist activity at mu opioid receptor in ddy mouse vas deferens assessed as inhibition of morphine-induced electrically-stimulated contraction at 10 nM pretreated for 20 mins; format: functional, tissue-based
# Mu-type opioid receptor (Mus musculus), sequence (P42866 whole entry): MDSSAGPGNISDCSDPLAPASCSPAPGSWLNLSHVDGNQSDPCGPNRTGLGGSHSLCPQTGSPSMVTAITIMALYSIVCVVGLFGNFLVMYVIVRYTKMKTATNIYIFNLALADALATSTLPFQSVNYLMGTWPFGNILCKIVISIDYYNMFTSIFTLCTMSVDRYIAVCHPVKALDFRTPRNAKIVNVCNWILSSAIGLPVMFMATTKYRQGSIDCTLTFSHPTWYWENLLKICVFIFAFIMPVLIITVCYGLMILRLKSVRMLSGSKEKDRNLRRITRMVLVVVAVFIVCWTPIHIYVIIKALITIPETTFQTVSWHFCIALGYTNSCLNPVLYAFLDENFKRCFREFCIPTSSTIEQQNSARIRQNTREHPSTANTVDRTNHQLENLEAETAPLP
# Delta-type opioid receptor, sequence (P32300 whole entry): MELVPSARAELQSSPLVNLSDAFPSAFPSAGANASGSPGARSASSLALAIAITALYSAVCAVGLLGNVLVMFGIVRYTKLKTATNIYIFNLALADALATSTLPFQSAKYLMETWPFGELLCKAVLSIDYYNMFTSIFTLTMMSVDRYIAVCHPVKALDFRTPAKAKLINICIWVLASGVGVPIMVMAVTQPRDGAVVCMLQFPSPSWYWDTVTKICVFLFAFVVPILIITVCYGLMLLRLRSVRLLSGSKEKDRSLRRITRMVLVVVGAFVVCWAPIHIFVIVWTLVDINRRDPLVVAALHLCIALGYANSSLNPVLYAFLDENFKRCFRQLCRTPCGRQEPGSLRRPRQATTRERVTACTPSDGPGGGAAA
# Delta-type opioid receptor (Mus musculus), sequence (P32300 whole entry): as above
# Kappa-type opioid receptor (Mus musculus), sequence (P33534 whole entry): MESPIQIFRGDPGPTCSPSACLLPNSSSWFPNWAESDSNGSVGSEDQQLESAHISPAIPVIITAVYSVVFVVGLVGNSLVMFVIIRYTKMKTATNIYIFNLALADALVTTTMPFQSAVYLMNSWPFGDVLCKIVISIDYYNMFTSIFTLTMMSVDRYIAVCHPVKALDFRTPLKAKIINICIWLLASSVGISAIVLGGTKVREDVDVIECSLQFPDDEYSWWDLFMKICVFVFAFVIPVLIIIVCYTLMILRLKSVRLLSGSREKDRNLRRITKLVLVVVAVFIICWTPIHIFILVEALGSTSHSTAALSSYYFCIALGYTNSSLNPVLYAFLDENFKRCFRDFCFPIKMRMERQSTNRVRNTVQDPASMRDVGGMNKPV
# Kappa-type opioid receptor, sequence (P33534 whole entry): as above
compound,measurement,setting,value
Oc1ccc2c3c1O[C@H]1c4c(c5cc(C(F)(F)F)cc6c5n4CCC6)C[C@@]4(O)[C@@H](C2)N(CC2CC2)CC[C@]314,k el at 1 µM,[1],0.00027 s⁻¹
same,ED50,Rattus norvegicus [2],> 1000 µg/kg
COc1ccc2c3c1O[C@H]1c4c(c5cccc6c5n4CCC6)C[C@@]4(O)[C@@H](C2)N(CC2CC2)CC[C@]314.CS(=O)(=O)O,k el at 1 µM,[1],0.00568 s⁻¹
same,ED50,Rattus norvegicus [3],6.4 µg/kg
same,ED50,Rattus norvegicus [4],2.07 µg/kg
COc1ccc2c3c(n4c2c1CCC4)[C@@H]1Oc2c(O)ccc4c2[C@@]12CCN(CC1CC1)[C@H](C4)[C@]2(O)C3,k el at 1 µM,[1],0.000437 s⁻¹
same,ED50,Rattus norvegicus [2],54.2 µg/kg
COc1ccc2c3c1O[C@H]1c4c(c5cccc6c5n4CCC6(C)C)C[C@@]4(O)[C@@H](C2)N(CC2CC2)CC[C@]314,k el at 1 µM,[1],0.00103 s⁻¹
same,ED50,Rattus norvegicus [2],12.8 µg/kg
Oc1ccc2c3c1O[C@H]1c4c(c5ccc(Cl)c6c5n4CCC6)C[C@@]4(O)[C@@H](C2)N(CC2CC2)CC[C@]314,k el at 1 µM,[1],0.000483 s⁻¹
same,ED50,Rattus norvegicus [2],13.8 µg/kg
COc1cc2c3c(c1)c1c(n3CCC2)[C@@H]2Oc3c(O)ccc4c3[C@@]23CCN(CC2CC2)[C@H](C4)[C@]3(O)C1,k el at 1 µM,[1],0.000552 s⁻¹
same,ED50,Rattus norvegicus [2],2 µg/kg
Oc1ccc2c3c1O[C@H]1c4c(c5cc(F)cc6c5n4CCC6)C[C@@]4(O)[C@@H](C2)N(CC2CC2)CC[C@]314,k el at 1 µM,[1],0.00029 s⁻¹
same,Activity,[5],inactive
same,Activity,[6],inactive
same,IC50,[7],8.8 µM
same,Kb,[7]; read-out: pA2 (converted),0.00145 µM
same,ED50,Rattus norvegicus [2],1.7 µg/kg
same,Ratio,[8],0.98
same,Kb,[9],0.331 µM
same,Activity,Rattus norvegicus [10],Dose-dependent effect
same,Ratio,[11],7.87
same,Selectivity ratio,Mus musculus [12],> 100
same,Selectivity ratio,Mus musculus [13],> 100
same,Ratio,[14],1.03
same,Activity,[15],inactive
Cc1ccc2c3c1c1c(n3CCC2)[C@@H]2Oc3c(O)ccc4c3[C@@]23CCN(CC2CC2)[C@H](C4)[C@]3(O)C1,k el at 1 µM,[1],0.000565 s⁻¹
Oc1ccc2c3c1O[C@H]1c4c(c5c(C(F)(F)F)ccc6c5n4CCC6)C[C@@]4(O)[C@@H](C2)N(CC2CC2)CC[C@]314,k el at 1 µM,[1],0.000278 s⁻¹
same,ED50,Rattus norvegicus [2],0.355 µg/kg
COc1ccc2c3c1c1c(n3CCC2)[C@@H]2Oc3c(O)ccc4c3[C@@]23CCN(CC2CC2)[C@H](C4)[C@]3(O)C1,k el at 1 µM,[1],0.000475 s⁻¹
same,ED50,Rattus norvegicus [2],8.67 µg/kg
Oc1ccc2c3c1O[C@H]1c4[nH]c5ccccc5c4C[C@@]4(O)[C@@H](C2)N(CC2CC2)CC[C@]314 [NALTRINDOLE],ED50,Rattus norvegicus [4],104 µg/kg
COc1ccc2c3c1O[C@H]1c4c(c5c(OC)ccc6c5n4CCC6)C[C@@]4(O)[C@@H](C2)N(CC2CC2)CC[C@]314,k el at 1 µM,[1],0.00333 s⁻¹
Oc1ccc2c3c1O[C@H]1c4c(c5c(Br)ccc6c5n4CCC6)C[C@@]4(O)[C@@H](C2)N(CC2CC2)CC[C@]314,k el at 1 µM,[1],0.000618 s⁻¹
same,ED50,Rattus norvegicus [2],94.6 µg/kg
Oc1ccc2c3c1O[C@H]1c4c(c5cc(Cl)cc6c5n4CCC6)C[C@@]4(O)[C@@H](C2)N(CC2CC2)CC[C@]314,k el at 1 µM,[1],0.000295 s⁻¹
same,ED50,Rattus norvegicus [4],78.4 µg/kg
COc1ccc2c3c1O[C@H]1c4c(c5c(C)ccc6c5n4CCC6)C[C@@]4(O)[C@@H](C2)N(CC2CC2)CC[C@]314,k el at 1 µM,[1],0.00595 s⁻¹
COc1ccc2c3c1O[C@H]1c4c(c5cc(F)cc6c5n4CCC6)C[C@@]4(O)C(C2)N(CC2CC2)CC[C@]314,k el at 1 µM,[1],0.00647 s⁻¹
same,ED50,Rattus norvegicus [4],4.73 µg/kg
Oc1ccc2c3c1O[C@H]1c4c(c5cc(OC(F)(F)F)cc6c5n4CCC6)C[C@@]4(O)[C@@H](C2)N(CC2CC2)CC[C@]314,k el at 1 µM,[1],0.000152 s⁻¹
same,ED50,Rattus norvegicus [2],> 1000 µg/kg
Oc1ccc2c3c1O[C@H]1c4c(c5cccc6c5n4CCC6)C[C@@]4(O)[C@@H](C2)N(CC2CC2)CC[C@]314,k el at 1 µM,[1],0.000415 s⁻¹
same,ED50,Rattus norvegicus [2],0.2 µg/kg
COc1ccc2c3c1O[C@H]1c4c(c5c(C(F)(F)F)ccc6c5n4CCC6)C[C@@]4(O)[C@@H](C2)N(CC2CC2)CC[C@]314,k el at 1 µM,[1],0.00228 s⁻¹
Oc1ccc2c3c1O[C@H]1c4c(c5cccc6c5n4CCO6)C[C@@]4(O)[C@@H](C2)N(CC2CC2)CC[C@]314,k el at 1 µM,[1],0.000557 s⁻¹
same,ED50,Rattus norvegicus [2],14 µg/kg
Oc1ccc2c3c1O[C@H]1c4c(c5ccc(Br)c6c5n4CCC6)C[C@@]4(O)[C@@H](C2)N(CC2CC2)CC[C@]314,k el at 1 µM,[1],0.000363 s⁻¹
same,ED50,Rattus norvegicus [2],27.4 µg/kg
COc1ccc2c3c1O[C@H]1c4c(c5cccc6c5n4CCO6)C[C@@]4(O)[C@@H](C2)N(CC2CC2)CC[C@]314,k el at 1 µM,[1],0.00105 s⁻¹
CC1(C)CCn2c3c(c4cccc1c42)C[C@@]1(O)[C@H]2Cc4ccc(O)c5c4[C@@]1(CCN2CC1CC1)[C@H]3O5,k el at 1 µM,[1],0.00126 s⁻¹
COc1ccc2c3c1O[C@H]1c4c(c5cc(Br)cc6c5n4CCC6)C[C@@]4(O)[C@@H](C2)N(CC2CC2)CC[C@]314,k el at 1 µM,[1],0.0044 s⁻¹
Oc1ccc2c3c1O[C@H]1c4c(c5cc(Br)cc6c5n4CCC6)C[C@@]4(O)[C@@H](C2)N(CC2CC2)CC[C@]314,k el at 1 µM,[1],0.000252 s⁻¹
same,ED50,Rattus norvegicus [2],5.05 µg/kg
Oc1ccc2c3c1O[C@H]1c4c(c5c(Cl)ccc6c5n4CCC6)C[C@@]4(O)[C@@H](C2)N(CC2CC2)CC[C@]314,k el at 1 µM,[1],0.00045 s⁻¹
same,ED50,Rattus norvegicus [2],3.5 µg/kg
